Read-outs that look alike come from different tables or passages of the source. Bridge positions count the residues as written; N and C are the ends. Ends that are not written are not given here.
Tests used:
[1] = tested on: L. monocytogenes and S. aureus; assay: Minimum bactericidal concentration (MBC), plating from MIC wells; assay type: cell-based, Listeria monocytogenes, Staphylococcus aureus; conditions: 99.9% reduction of initial inoculum; 10 μl from wells with no visible growth plated on BHI agar
Protocol: The strain collection was tested for sensitivity to protamine, plectasin, novicidin, and novispirin G10 by determining their minimal inhibitory concentration (MIC) using a microbroth dilution method. Colonies from a BHI agar plate incubated overnight were suspended in MHB pH 7.4 to a turbidity of 0.11–0.12 at 546 nm (approx. 1.0 × 10^8 CFU/ml) and diluted in MHB to a concentration of 5.0 × 10^5 CFU/ml. 90 μl of bacterial suspension was incubated with 10 μl of peptide solution in polypropylene 96-well plates (Nunc, 442587) for 18–24 h at 37°C. The peptide solutions were made fresh on the day of assay and diluted two-fold. The range of concentrations assayed were 0.031–32 μg/ml for novicidin, 0.125–128 μg/ml for protamine and novispirin G10, and 0.25–256 μg/ml for plectasin. MIC was the lowest peptide concentration at which visual growth was inhibited. The minimum bactericidal concentration (MBC) values were determined by plating l0 μl samples from wells with no visible growth onto BHI agar plates. MBC was the lowest concentration of each peptide of which 99.9% reduction of the initial inoculum was observed.

Listeria monocytogenes = assay type: cell-based; conditions: radial diffusion, MHB pH 7.4/1% agarose/0.1% glucose, overnight, 37°C
Protocol: (§1) Experiments were carried out with a collection of 25 Listeria monocytogenes strains (Table 1) and 16 Staphylococcus aureus strains (Table 2) representing different lineages and serotypes (L. monocytogenes), spa types (S. aureus), and origins (food processing environment, food products, and human clinical isolates). Six L. monocytogenes strains were mutants of the EGD strain and were mutated in genes known to be involved in stress tolerance. The S. aureus collection comprised two deletion mutants, strains Sa113/ΔmprF [8] and Sa113/ΔdltA [7], known to be more sensitive to host defense peptides. Two of the S. aureus strains could not immediately be assigned to an existing spa type and we are in the process of acquiring the additional information that is needed to assign a new spa type to them. The strains were obtained from The National Institute of Aquatic Resources and The National Food Institute, Technical University of Denmark, Faculty of Life Sciences, University of Copenhagen, Denmark, Statens Serum Institut, Denmark, University of Würzburg, Germany and Campden Food and Drink Association, United Kingdom. Stock cultures were stored at -80°C in 4% (w/V) glycerol, 0.5% (w/V) glucose, and 2.0% (w/V) skimmed milk powder. The bacteria were grown in Brain Heart Infusion (BHI) broth (Oxoid, CM0225), Tryptone Soy Broth (TSB) (Oxoid, CM129), and cation-adjusted Mueller-Hinton II Broth (MHB) (Becton Dickinson, 212322) adjusted to pH 7.4. To avoid unspecific binding of host defense peptides to plastic ware and agar, all MIC determinations were carried out using polypropylene plastic ware and radial diffusion assays were carried out in MHB supplemented with 1% agarose (Invitrogen, 15510-027) as gelling agent.
(§2) Protamine was purchased from Sigma (P4020-5G). Plectasin, novicidin, and novispirin G10 were supplied by Novozymes A/S. Recombinant HBD-3 was purchased from PeproTech (300-52).
(§3) Each strain was tested in two independent trials.

Staphylococcus aureus = assay type: cell-based; conditions: radial diffusion, MHB pH 7.4/1% agarose/0.1% glucose, overnight, 37°C
Protocol: as §1, §2, §3

CC[C@H](C)[C@@H]1NC(=O)[C@H](CO)NC(=O)[C@H](CCCCN)NC(=O)[C@@H]2CSSC[C@@H](C(=O)N[C@@H](Cc3ccc(O)cc3)C(=O)O)NC(=O)[C@H](CCCCN)NC(=O)[C@@H]3CSSC[C@H](NC(=O)[C@H](CCC(N)=O)NC(=O)[C@H](CCSC)NC(=O)[C@H](CC(=O)O)NC(=O)[C@H](CC(=O)O)NC(=O)[C@H](CCC(=O)O)NC(=O)[C@H](CC(=O)O)NC(=O)[C@H](Cc4c[nH]c5ccccc45)NC(=O)[C@@H]4CCCN4C(=O)CNC(=O)[C@H](CC(N)=O)NC(=O)[C@@H](NC(=O)CNC(=O)[C@H](Cc4ccccc4)NC(=O)CN)CSSC[C@H](NC(=O)[C@H](Cc4ccc(O)cc4)NC(=O)CNC(=O)CNC(=O)[C@H](CCCCN)NC(=O)[C@H](Cc4ccc(O)cc4)NC(=O)CNC(=O)[C@H](CCCCN)NC1=O)C(=O)N[C@@H](C)C(=O)N[C@@H](CCCCN)C(=O)NCC(=O)NCC(=O)N[C@@H](Cc1ccccc1)C(=O)N[C@@H](C(C)C)C(=O)N3)C(=O)N[C@@H](Cc1c[nH]cn1)C(=O)N[C@@H](CC(N)=O)C(=O)N[C@@H](Cc1c[nH]cn1)C(=O)N2 [plectasin]
minimum bactericidal concentrations (MBC) [1]: identical to the MICs

GIINTLQKYYCRVRGGRCAVLSCLPKEEQIGKCSTRGRKCCRRKK (disulfide 11-40, 18-33, 23-41 (inferred)) [HBD-3, human β-defensin 3]
MIC (MEC) (Listeria monocytogenes; strain 4446, first of two values (two independent trials)): 16/16 μg/ml | MIC (MEC) (Listeria monocytogenes; strain 4446, second of two values (two independent trials)): 16/16 μg/ml | MIC (MEC) (Listeria monocytogenes; strain 7418, first of two values (two independent trials)): 4 µg/mL | MIC (MEC) (Listeria monocytogenes; strain 7418, second of two values (two independent trials)): 8 µg/mL | MIC (MEC) (Listeria monocytogenes; strain EGD, first of two values (two independent trials)): 16/16 μg/ml | MIC (MEC) (Listeria monocytogenes; strain EGD, second of two values (two independent trials)): 16/16 μg/ml | MIC (MEC) (Listeria monocytogenes; strain La22, first of two values (two independent trials)): 16/16 μg/ml | MIC (MEC) (Listeria monocytogenes; strain La22, second of two values (two independent trials)): 16/16 μg/ml | MIC (MEC) (Listeria monocytogenes; strain La111, first of two values (two independent trials)): 8 µg/mL | MIC (MEC) (Listeria monocytogenes; strain La111, second of two values (two independent trials)): 16 µg/mL | MIC (MEC) (Listeria monocytogenes; strain N53-1, first of two values (two independent trials)): 16 µg/mL | MIC (MEC) (Listeria monocytogenes; strain N53-1, second of two values (two independent trials)): 32 µg/mL | MIC (MEC) (Listeria monocytogenes; strain Scott A, first of two values (two independent trials)): 8/8 μg/ml | MIC (MEC) (Listeria monocytogenes; strain Scott A, second of two values (two independent trials)): 8/8 μg/ml | MIC (MEC) (Staphylococcus aureus; strain 796, first of two values (two independent trials)): 64/64 μg/ml | MIC (MEC) (Staphylococcus aureus; strain 796, second of two values (two independent trials)): 64/64 μg/ml | MIC (MEC) (Staphylococcus aureus; strain 2148-jvi, first of two values (two independent trials)): 32/32 μg/ml | MIC (MEC) (Staphylococcus aureus; strain 2148-jvi, second of two values (two independent trials)): 32/32 μg/ml | MIC (MEC) (Staphylococcus aureus; strain 8325-4, first of two values (two independent trials)): 32/32 μg/ml | MIC (MEC) (Staphylococcus aureus; strain 8325-4, second of two values (two independent trials)): 32/32 μg/ml | MIC (MEC) (Staphylococcus aureus; strain 14943, first of two values (two independent trials)): 32 µg/mL | MIC (MEC) (Staphylococcus aureus; strain 14943, second of two values (two independent trials)): 64 µg/mL | MIC (MEC) (Staphylococcus aureus; strain B31369, first of two values (two independent trials)): 64/64 μg/ml | MIC (MEC) (Staphylococcus aureus; strain B31369, second of two values (two independent trials)): 64/64 μg/ml | MIC (MEC) (Staphylococcus aureus; strain K3-B2, first of two values (two independent trials)): 32 µg/mL | MIC (MEC) (Staphylococcus aureus; strain K3-B2, second of two values (two independent trials)): 64 µg/mL | MIC (MEC) (Staphylococcus aureus; strain KES 626, first of two values (two independent trials)): 32 µg/mL | MIC (MEC) (Staphylococcus aureus; strain KES 626, second of two values (two independent trials)): 64 µg/mL

— paper PMC2639596, “Antimicrobial peptides effectively kill a broad spectrum of Listeria monocytogenes and Staphylococcus aureus strains independently of origin, sub-type, or virulence factor expression” (BMC Microbiology, 2008)
